In brackets after ≈: the same amount, converted by molar mass. Where two headings read alike, the source gives them in different places.
Assays:
Assay type in all cases: cell-based
[1] = system: Candida albicans BNCC186382; assay: MIC by microdilution method, sensitive Candida albicans; conditions: for MIC: Candida albicans, read-out: MIC Candida albicans
Source text: (§1) Used bacteria: including drug-resistant bacteria and sensitive bacteria: the used sensitive strains include Cryptococcus neoformans BNCC225501, Candida albicans BNCC186382, Aspergillus fumigatus Fresenius BNCC338385, Escherichia coli BNCC336902, Staphylococcus aureus BNCC186335 and Pseudomonas aeruginosa Migula BNCC337940, and the used drug-resistant Candida albicans is clinically isolated azole multi-drug resistant Candida albicans (CA10) donated by Qianfoshan Hospital in Shandong Province. The strains are stored in normal saline containing 20% glycerol at −80° C. for a long time. Before operation, the strains are lined and transferred to a YPD solid plate, and subjected to static culture at 30° C. for 24 h; single colonies are selected and transferred to a YPD liquid medium, and cultured at 200 rpm at 30° C. overnight; and the overnight cultured bacterial solution is inoculated into a new YPD liquid medium at a ratio of about 1:100, and subjected to shaking culture at 200 rpm at 30° C. for 4 h so that Candida albicans is in a logarithmic phase.
(§2) Culture medium: the culture medium used by the microdilution method is RPMI-1640 culture medium (Gibco).
(§3) 1.2 Operation and results of detection of minimum inhibitory concentration (MIC) of the compounds and the azole drugs by the microdilution method: the MIC of the synthesized compound and the azole drug fluconazole for the standard strains is detected by the microdilution method according to fungal sensitivity detection method (M27-A3) established by the Clinical and Laboratory Standards Institute (CLSI). Specific steps are as follows: the prepared strain concentration is adjusted to 0.5-2.5×10^3 CFU/mL by using RPMI-1640 medium. 200 μL of bacterial solution containing the highest concentration of the drug to be detected is added into the first well of a 96-well plate, and 100 μL of blank bacterial solution without drug is added into each of the other wells; the bacterial solution is diluted to a series of concentration gradients by a double gradient dilution method; the well plate is subjected to static culture at constant temperature of 35° C. for 24 h; after the absorbance (OD) of each concentration gradient at 570 nm is detected by a microplate reader and the absorbance of a blank medium is subtracted, the growth rate=dosing hole value/control hole value ×100%, the inhibition rate=1−growth rate, and the minimum concentration with the inhibition rate greater than 80% is the minimum inhibitory concentration (MIC) value.

[2] = system: Cryptococcus neoformans BNCC225501; assay: MIC by microdilution method, sensitive Cryptococcus neoformans; conditions: for MIC: Cryptococcus neoformans, read-out: MIC Cryptococcus neoformans
Source text: as §1, §2, §3

[3] = system: Aspergillus fumigatus Fresenius BNCC338385; assay: MIC by microdilution method, sensitive Aspergillus fumigatus Fresenius; conditions: 24 h; for MIC: Aspergillus fumigatus, read-out: MIC Aspergillus fumigatus Fresenius
Source text: as §1, §2, §3

[4] = system: Staphylococcus aureus BNCC186335; assay: MIC by microdilution method, sensitive Staphylococcus aureus; conditions: read-out: MIC Staphylococcus aureus
Source text: as §1, §2, §3

[5] = system: Escherichia coli BNCC336902; assay: MIC by microdilution method, sensitive Escherichia coli; conditions: read-out: MIC Escherichia coli
Source text: as §1, §2, §3

[6] = system: Pseudomonas aeruginosa Migula BNCC337940; assay: MIC by microdilution method, sensitive Pseudomonas aeruginosa Migula; conditions: 24 h, read-out: MIC Pseudomonas aeruginosa Migula
Source text: as §1, §2, §3

[7] = system: Drug-resistant Candida albicans CA10; assay: MIC by microdilution method, drug-resistant Candida albicans CA10; conditions: clinically isolated azole multi-drug resistant strain CA10; 24 h
Source text: as §1, §2, §3

[8] = sensitive strain, 35° C., 24 h, minimum concentration with inhibition rate greater than 80%
[9] = sensitive strain, 35° C., minimum concentration with inhibition rate greater than 80%
[10] = BNCC186382, sensitive strain, 35° C., 24 h, minimum concentration with inhibition rate greater than 80%
[11] = BNCC225501, sensitive strain, 35° C., 24 h, minimum concentration with inhibition rate greater than 80%
[12] = BNCC186335, sensitive strain, 35° C., 24 h, minimum concentration with inhibition rate greater than 80%
[13] = BNCC336902, sensitive strain, 35° C., 24 h, minimum concentration with inhibition rate greater than 80%

| SMILES | MIC Candida albicans [1, 8] | MIC Cryptococcus neoformans [2, 8] | MIC Aspergillus fumigatus Fresenius [3, 9] | MIC ([1]; BNCC186382, 24 h) | MIC ([2]; BNCC225501, 24 h) | MIC [3] | MIC ([4]; BNCC186335, 24 h) | MIC ([5]; BNCC336902, 24 h) | MIC [6] | MIC80 Drug-resistant Candida albicans CA10 [7] | MIC [1, 10] | MIC [2, 11] | MIC [3, 9] | MIC [4, 12] | MIC [5, 13] | MIC [6, 9] |
| --- | --- | --- | --- | --- | --- | --- | --- | --- | --- | --- | --- | --- | --- | --- | --- | --- |
| C[C@@H]1[C@H](O)[C@@H](C)/C=C/C=C/C=C/C=C/C=C/C=C/C=C/[C@H](O[C@@H]2O[C@H](C)[C@@H](O)[C@H](N)[C@@H]2O)C[C@@H]2O[C@](O)(C[C@@H](O)C[C@@H](O)[C@H](O)CC[C@@H](O)C[C@@H](O)CC(=O)O[C@H]1C)C[C@H](O)[C@H]2C(=O)O [Amphotericin B, amphotericin B, reference compound] | 2 µg/mL (≈ 2.16 µM) | 64 µg/mL (≈ 69.3 µM) | 16 µg/mL (≈ 17.3 µM) | – | – | – | – | – | – | – | – | – | – | – | – | – |
| COc1cccc(-c2cc3ccccc3[nH]2)c1 [Compound 1] | – | – | – | 16 µg/mL (≈ 71.7 µM) | 4 µg/mL (≈ 17.9 µM) | 8 µg/mL (≈ 35.8 µM) | 64 µg/mL (≈ 287 µM) | 4 µg/mL (≈ 17.9 µM) | 8 µg/mL (≈ 35.8 µM) | > 256 µg/mL | – | – | – | – | – | – |
| COc1ccc2cc(-c3ccccc3)[nH]c2c1 [Compound 3] | – | – | – | – | – | – | – | – | – | > 256 µg/mL | 256 µg/mL (≈ 1150 µM) | 256 µg/mL (≈ 1150 µM) | 256 µg/mL (≈ 1150 µM) | 256 µg/mL (≈ 1150 µM) | 256 µg/mL (≈ 1150 µM) | 64 µg/mL (≈ 287 µM) |
| c1ccc(-c2cc3ccccc3[nH]2)cc1 [Compound 6] | – | – | – | > 256 µg/mL | 256 µg/mL (≈ 1320 µM) | > 256 µg/mL | > 256 µg/mL | > 256 µg/mL | > 256 µg/mL | > 256 µg/mL | – | – | – | – | – | – |
| Cc1cccc(-c2cc3ccccc3[nH]2)c1 [Compound 7] | – | – | – | 256 µg/mL (≈ 1240 µM) | 256 µg/mL (≈ 1240 µM) | 256 µg/mL (≈ 1240 µM) | 8 µg/mL (≈ 38.6 µM) | 8 µg/mL (≈ 38.6 µM) | 256 µg/mL (≈ 1240 µM) | > 256 µg/mL | – | – | – | – | – | – |
| Cc1ccc(-c2cc3ccccc3[nH]2)cc1 [Compound 8] | – | – | – | 256 µg/mL (≈ 1240 µM) | 256 µg/mL (≈ 1240 µM) | 256 µg/mL (≈ 1240 µM) | 256 µg/mL (≈ 1240 µM) | 8 µg/mL (≈ 38.6 µM) | 256 µg/mL (≈ 1240 µM) | > 256 µg/mL | – | – | – | – | – | – |
| Fc1ccc(-c2cc3ccccc3[nH]2)cc1 [Compound 10] | – | – | – | > 256 µg/mL | > 256 µg/mL | > 256 µg/mL | > 256 µg/mL | > 256 µg/mL | > 256 µg/mL | > 256 µg/mL | – | – | – | – | – | – |
| Clc1ccc(-c2cc3ccccc3[nH]2)cc1 [Compound 11] | – | – | – | > 256 µg/mL | > 256 µg/mL | > 256 µg/mL | > 256 µg/mL | > 256 µg/mL | > 256 µg/mL | > 256 µg/mL | – | – | – | – | – | – |
| O=[N+]([O-])c1cccc(-c2cc3ccccc3[nH]2)c1 [Compound 12] | – | – | – | 4 µg/mL (≈ 16.8 µM) | 8 µg/mL (≈ 33.6 µM) | 4 µg/mL (≈ 16.8 µM) | 256 µg/mL (≈ 1070 µM) | 8 µg/mL (≈ 33.6 µM) | 2 µg/mL (≈ 8.39 µM) | > 256 µg/mL | – | – | – | – | – | – |
| FC(F)(F)c1ccc(-c2cc3ccccc3[nH]2)cc1 [Compound 13] | – | – | – | 256 µg/mL (≈ 980 µM) | 256 µg/mL (≈ 980 µM) | 256 µg/mL (≈ 980 µM) | 256 µg/mL (≈ 980 µM) | 256 µg/mL (≈ 980 µM) | 16 µg/mL (≈ 61.2 µM) | > 256 µg/mL | – | – | – | – | – | – |
| c1ccc2[nH]c(-c3ccc4c(c3)OCO4)cc2c1 [Compound 15] | – | – | – | 256 µg/mL (≈ 1080 µM) | 256 µg/mL (≈ 1080 µM) | 256 µg/mL (≈ 1080 µM) | 256 µg/mL (≈ 1080 µM) | 256 µg/mL (≈ 1080 µM) | 16 µg/mL (≈ 67.4 µM) | > 256 µg/mL | – | – | – | – | – | – |
| Cc1ccc2[nH]c(-c3ccccc3)cc2c1 [Compound 16] | – | – | – | – | – | – | – | – | – | > 256 µg/mL | 256 µg/mL (≈ 1240 µM) | 256 µg/mL (≈ 1240 µM) | 256 µg/mL (≈ 1240 µM) | 256 µg/mL (≈ 1240 µM) | 16 µg/mL (≈ 77.2 µM) | 256 µg/mL (≈ 1240 µM) |
| COc1ccc2[nH]c(-c3ccccc3)cc2c1 [Compound 18] | – | – | – | – | – | – | – | – | – | > 256 µg/mL | 256 µg/mL (≈ 1150 µM) | 256 µg/mL (≈ 1150 µM) | 256 µg/mL (≈ 1150 µM) | 256 µg/mL (≈ 1150 µM) | 256 µg/mL (≈ 1150 µM) | 256 µg/mL (≈ 1150 µM) |
| COC(=O)c1ccc2[nH]c(-c3ccccc3)cc2c1 [Compound 19] | – | – | – | – | – | – | – | – | – | > 256 µg/mL | 8 µg/mL (≈ 31.8 µM) | 256 µg/mL (≈ 1020 µM) | 16 µg/mL (≈ 63.7 µM) | 8 µg/mL (≈ 31.8 µM) | 256 µg/mL (≈ 1020 µM) | 32 µg/mL (≈ 127 µM) |
| COC(=O)c1ccc2cc(-c3ccccc3)[nH]c2c1 [Compound 20] | – | – | – | – | – | – | – | – | – | > 256 µg/mL | 32 µg/mL (≈ 127 µM) | 256 µg/mL (≈ 1020 µM) | 256 µg/mL (≈ 1020 µM) | 32 µg/mL (≈ 127 µM) | 256 µg/mL (≈ 1020 µM) | 8 µg/mL (≈ 31.8 µM) |
| Clc1ccc2[nH]c(-c3ccccc3)cc2c1 [Compound 21] | – | – | – | – | – | – | – | – | – | > 256 µg/mL | > 256 µg/mL | > 256 µg/mL | > 256 µg/mL | > 256 µg/mL | > 256 µg/mL | > 256 µg/mL |
| Fc1ccc2[nH]c(-c3ccccc3)cc2c1 [Compound 22] | – | – | – | – | – | – | – | – | – | > 256 µg/mL | 256 µg/mL (≈ 1210 µM) | 8 µg/mL (≈ 37.9 µM) | 256 µg/mL (≈ 1210 µM) | 16 µg/mL (≈ 75.7 µM) | 32 µg/mL (≈ 151 µM) | 256 µg/mL (≈ 1210 µM) |
| Brc1ccc2cc(-c3ccccc3)[nH]c2c1 [Compound 23] | – | – | – | – | – | – | – | – | – | > 256 µg/mL | 256 µg/mL (≈ 941 µM) | 256 µg/mL (≈ 941 µM) | 256 µg/mL (≈ 941 µM) | 256 µg/mL (≈ 941 µM) | 256 µg/mL (≈ 941 µM) | 8 µg/mL (≈ 29.4 µM) |
| [H]/N=C(/N)N[C@H]1[C@H](O)[C@@H](O)[C@H](O[C@@H]2O[C@@H](C)[C@](O)(C=O)[C@H]2O[C@@H]2O[C@@H](CO)[C@H](O)[C@@H](O)[C@@H]2NC)[C@@H](N/C(N)=N\[H])[C@@H]1O [Streptomycin, reference compound] | – | – | – | – | – | – | – | – | – | – | – | – | – | 2 µg/mL (≈ 3.44 µM) | 2 µg/mL (≈ 3.44 µM) | 2 µg/mL (≈ 3.44 µM) |
